# PMC3317662, “Some Commonly Used Brominated Flame Retardants Cause Ca^2+-ATPase Inhibition, Beta-Amyloid Peptide Release and Apoptosis in SH-SY5Y Neuronal Cells” (PLoS ONE, 2012)
# Molecular target: T1, microsomal Ca2+-ATPase (SERCA)
# T1 construct: native enzyme in microsomal membranes isolated from SH-SY5Y cells
# Experiment: Ca2+-dependent ATP hydrolysis (phosphate liberation assay) in SH-SY5Y microsomes
# Format: biochemical
row,Ki,SMILES
1,3.5 ± 1.2 µM,BrC1CCC(Br)C(Br)CCC(Br)C(Br)CCC1Br (stereo not drawn) [hexabromocyclododecane]
2,9 ± 2 µM,CC(C)(c1cc(Br)c(O)c(Br)c1)c1cc(Br)c(O)c(Br)c1 [Tetrabromobisphenol-A]

row,SMILES,Ki
1,Brc1c(Br)c(Br)c(Oc2c(Br)c(Br)c(Br)c(Br)c2Br)c(Br)c1Br [decabromodiphenyl ether],41 ± 7 µM
